Data: US7879885B2, “Thioalkeneamides as transketolase inhibitors” (Array Biopharma, Inc., priority 2004, dated 2011)

Molecular target: T1, HCT116 TK (cellular transketolase, colon carcinoma HCT116) (Homo sapiens, UniProt P29401)
T1 construct: endogenous in cells; host or cells: HCT116 colon carcinoma cells
T1 sequence (P29401 1-623): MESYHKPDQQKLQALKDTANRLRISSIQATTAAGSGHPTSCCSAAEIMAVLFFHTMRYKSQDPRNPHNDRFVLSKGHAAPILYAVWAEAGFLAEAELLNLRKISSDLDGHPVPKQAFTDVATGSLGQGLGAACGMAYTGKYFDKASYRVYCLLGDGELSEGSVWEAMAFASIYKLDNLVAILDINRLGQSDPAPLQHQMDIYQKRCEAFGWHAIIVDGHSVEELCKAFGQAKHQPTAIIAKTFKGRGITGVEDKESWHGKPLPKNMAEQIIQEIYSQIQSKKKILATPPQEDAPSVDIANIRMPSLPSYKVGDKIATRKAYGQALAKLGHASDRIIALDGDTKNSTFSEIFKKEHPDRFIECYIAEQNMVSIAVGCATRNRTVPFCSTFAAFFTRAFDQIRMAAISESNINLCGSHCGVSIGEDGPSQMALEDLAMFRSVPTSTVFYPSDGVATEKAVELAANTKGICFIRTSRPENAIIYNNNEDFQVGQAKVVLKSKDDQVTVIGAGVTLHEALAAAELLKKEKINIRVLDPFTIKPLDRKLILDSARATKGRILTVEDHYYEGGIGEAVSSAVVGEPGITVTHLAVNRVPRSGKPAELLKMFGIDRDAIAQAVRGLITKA
Assay: Cellular assay: transketolase activity in lysates of treated HCT116 cells
Format: cell-based
Conditions: colon carcinoma HCT116, thiamine-free DMEM, 48 hours treatment, mean
Method: Log-phase cells were trypsinized, washed and resuspended in thiamine-free DMEM. Optimization of the initial cell counts was carried out for each cell line prior to IC50 measurements. […] Using this initial cell count, IC50 could be monitored for six days.
Media containing 8,000 cells (95 μl) were used to seed individual wells in a 96-well clear-bottom cell cultured-treated sterile plate. Inhibitor compounds were dissolved in 100% DMSO as 10 mM solutions. Serial dilutions were then made in 100% DMSO to make up a 100× stock, then diluted to 20× in double-deionized H2O (ddH2O). Twenty-four hours after seeding, 5 μl of 20× inhibitor compound stock solution was added to the cells so that the final concentration of DMSO was 1%. Media were changed after 24 hours. Forty-eight hours after inhibitor compound treatment, the plates were inverted to remove media and blotted on a paper towel. The plates were then either subjected to enzymatic reactions immediately or were frozen at −20° C. for future assays.
Lysis buffer (20 mM HEPES, pH 7.5, 1 mM EDTA, 0.2 g/l Triton X-100® and 0.2 g/L sodium deoxycholate, supplemented with 1 mM DTT and 1 mM PMSF just before use, 80 μl) were added to each well of the assay plate and allow cell lysis at RT with shaking. Then 15 ul of 5× assay buffer containing final concentrations of 50 mM HEPES, 40 mM KCl, 2.5 mM MgCl2, 5 mM NaArsenate, 1 mM NAD, 2 unit/ml glyceraldehyde-3-phosphate dehydrogenase (GAPDH) was added to the 80 ul of lysate. Reaction kinetics were monitored on a fluorescent plate reader to allow any possible background activity via GAPDH to burn out. Then 5 ul of substrate mix containing final concentrations of 0.5 mM ribose-5-phosphate and 0.5 mM xylulose-5-phosphate was added to initiate the reaction. Monitor reaction kinetics were monitored using a fluorescent plate reader and the slope of the initial linear range was recorded as the velocity of the reaction (FU/min). Enzymatic inhibition was expressed as percent of control wells that were not treated with compounds. The values (y) were plotted as function of the log concentration (x) and fitted to a sigmoidal dose-response curve with variable slopes that bears the equation: y=bottom+(top−bottom)/(1+10^((log EC50-x)*hillslope)).

SMILES | IC50 [nM]
CCCSS/C(CCO)=C(/C)N(C=O)Cc1ccc(C)nc1N | 25
CCCSS/C(CCOP(=O)(OCC)OCC)=C(/C)N(C=O)Cc1ccc(C)nc1N | 1040
CCC(C)SS/C(CCO)=C(/C)N(C=O)Cc1ccc(C)nc1N (stereo not drawn) | 253
C/C(=C(\CCO)SSCC1CCCO1)N(C=O)Cc1ccc(C)nc1N (stereo not drawn) | 24
C/C(=C(\CCO)SSCCO)N(C=O)Cc1ccc(C)nc1N | 13
C/C(=C(\CCO)SSCCC(=O)O)N(C=O)Cc1ccc(C)nc1N | 52
C/C(=C(\CCO)SSCCN1CCCC1)N(C=O)Cc1ccc(C)nc1N | 198
C/C(=C(\CCO)SSCCN1CCOCC1)N(C=O)Cc1ccc(C)nc1N | 70
CCCSS/C(CCO)=C(/C)N(C=O)Cc1ccc(Cl)nc1N | 7730
Cc1ccc(CN(C=O)/C=C(/CCO)SS/C(=C\N(C=O)Cc2ccc(C)nc2N)CCO)c(N)n1 | 102000
C/C(=C(\CCO)SS/C(CCO)=C(/C)N(C=O)Cc1cccnc1N)N(C=O)Cc1cccnc1N | 479
C/C(=C(\CCO)SS/C(CCO)=C(/C)N(C=O)Cc1ccc(C)nc1N)N(C=O)Cc1ccc(C)nc1N | 10
CC(=O)N(Cc1ccc(C)nc1N)/C(C)=C(/CCO)SS/C(CCO)=C(/C)N(Cc1ccc(C)nc1N)C(C)=O | 32
CC(=O)OCC/C(SS/C(CCOC(C)=O)=C(/C)N(C=O)Cc1ccc(C)nc1N)=C(\C)N(C=O)Cc1ccc(C)nc1N | 8
C/C(=C(\CCO)SS/C(CCO)=C(/C)N(C=O)Cc1ccc(Cl)nc1N)N(C=O)Cc1ccc(Cl)nc1N | 5.27
CCCCS/C(CCO)=C(/C)N(C=O)Cc1ccc(C)nc1N | 6460
C/C(=C(\CCO)SCCN1CCCCC1)N(C=O)Cc1ccc(C)nc1N | 3700
C/C(=C(\CCO)SCCS(=O)(=O)c1ccccc1)N(C=O)Cc1ccc(C)nc1N | 1870
C/C(=C(\CCO)SCOC(=O)C(C)(C)C)N(C=O)Cc1ccc(C)nc1N | 116
CC(=O)OCC/C(SCOC(=O)C(C)(C)C)=C(\C)N(C=O)Cc1ccc(C)nc1N | 25
CNC(=O)OCS/C(CCO)=C(/C)N(C=O)Cc1ccc(C)nc1N | 50
C/C(=C(\CCO)SCOC(=O)N(C)C)N(C=O)Cc1ccc(C)nc1N | 507
CC(=O)OCC/C(SCOC(=O)N(C)C)=C(\C)N(C=O)Cc1ccc(C)nc1N | 26300
CC(=O)Nc1nc(C)ccc1CN(C=O)/C(C)=C(/CCOC(C)=O)SCOC(=O)N(C)C | 19400
CC(=O)Nc1nc(C)ccc1CN(C=O)/C(C)=C(/CCOC(C)=O)SCOC(=O)C(C)(C)C | 2480
CC(=O)OCC/C(SC(C)=O)=C(\C)N(C=O)Cc1ccc(C)nc1N | 50
CC(=O)OCC/C(SC(=O)c1ccccc1)=C(\C)N(C=O)Cc1ccc(C)nc1N | 108
C/C(=C(\CCOC(=O)c1ccccc1)SC(=O)c1ccccc1)N(C=O)Cc1ccc(C)nc1N | 28
CCOP(=O)(OCC)OCC/C(SC(=O)c1ccccc1)=C(\C)N(C=O)Cc1ccc(C)nc1N | 7160
C/C(=C1\CCOC(=O)S1)N(C=O)Cc1ccc(C)nc1N | 15
